Measured values: patent publication US12532889B2, “Herbicidal compositions comprising glufosinate” (BASF SE, priority 2023, dated 2026)

Key:
Experiment in all cases: Post-emergence application in field trials (Example A)
Assay type in all cases: in vivo
[1] = test system: HORVS (Hordeum vulgare (spring barley)); conditions: Table 3.1, HORVS volunteer barley, growth stage 22-24, height 32-35 cm, 28 DAT, water 100 l/ha
In short: (§1)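 Field plots with natural or seeded weeds were treated post-emergence, solo or in mixtures. Damage was rated visually at stated days after treatment on a 0–100% scale against untreated plants; expected additive mixture activity calculated by the Colby method.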

[2] = test system: DIGHO (Digitaria horizontalis); conditions: Table 1.4, DIGHO growth stage 24, 14 DAT, water 200 l/ha
In short: as §1

ERISS (Erigeron sp.) = conditions: Table 1.8, ERISS height 30-50 cm, 14 DAT, water 200 l/ha
In short: as §1

[3] = test system: POLCO (Polygonum convolvulus); conditions: Table 3.2, A-1 12.5, B-2 500 g ai/ha, 14 DAT, water 100 l/ha
In short: as §1

[4] = test system: BOILF (Spermacoce latifolia); conditions: Table 1.16, A-1 25, B-2 400 g ai/ha, 21 DAT, water 200 l/ha
In short: as §1

[5] = test system: SPCHI (Spermacoce hispida); conditions: Table 1.2; SPCHI height 25 cm; B-2 solo 400 g ai/ha; 14 DAT; water volume 100 l/ha; 0.5% v/v MSO
Description: (§2) In the examples below, using the method of S. R. Colby (1967) “Calculating synergistic and antagonistic responses of herbicide combinations”, Weeds 15, p. 22ff., the value E, which is expected if the activity of the individual active compounds is only additive, was calculated:
(§3) [formula] • where • X=percent activity using active herbicide A at an application rate a; • Y=percent activity using active herbicide B (e.g. glufosinate) at an application rate b; • E=expected activity (in %) by A+B at application rates a+b.
(§4) If the value found experimentally is higher than the value E calculated according to Colby, a synergistic effect is present.
(§5) On field test sites, natural weed infestation or seeded weeds were treated post-emergence of the weeds.
(§6) In the field trials, the weeds were treated as indicated below.
(§7) In the following experiments, the herbicidal activity for the individual herbicidal compositions (solo and mixture applications) was assessed at the indicated days after treatment (DAT). The assessments for the damage on undesired weeds caused by the composition was carried out using a scale from 0 to 100%, compared to the untreated control plants. Here, 0 means no damage and 100 means complete destruction of the plants.
(§8) Post-emergence application of Herbicide A-1 (A-1) and glufosinate ammonium (B-2) in Field Trials:
(§9) Herbicide A-1 (50 g/l), glufosinate ammonium (200 g/l) and optional herbicide C were, together with addition of 0.5% v/v MSO (methylated seed oil) as adjuvant, formulated in water as distribution medium as indicated and sprayed with commercial flat fan nozzles.

EPHHI (Euphorbia hirta) = conditions: Table 1.2; EPHHI height 25 cm; B-2 solo 400 g ai/ha; 14 DAT; water volume 100 l/ha; 0.5% v/v MSO
Description: as §2, §3, §4, §5, §6, §7, §8, §9

[6] = test system: CYPDI (Cyperus difformis); conditions: CYPDI height 25 cm
Description: as §2, §3, §4, §5, §6, §7, §8, §9

[7] = test system: DIGIN = TRCIN (Digitaria insularis)
Description: as §2, §3, §4, §5, §6, §7, §8, §9

ELEIN (Eleusine indica) = test system: ELEIN (Eleusine indica)
Description: as §2, §3, §4, §5, §6, §7, §8, §9

[8] = test system: SETPA (Setaria palmifolia); conditions: Table 5.3; SETPA growth stage 76-77; A-1 25, B-6 252 g ai/ha; 28 DAT; water 300 l/ha
In short: as §1

[9] = test system: CYPKH (Cyperus kyllingia var. humilis); conditions: Table 5.4; CYPKH growth stage 76-77, height 13-14 cm; A-1 25, B-6 252 g ai/ha; 28 DAT; water 400 l/ha
In short: as §1

[10] = test system: SETVE (Setaria verticillata); conditions: 42 DAT; B-6 252 g ai/ha; growth stage 21-23; height 8-16 cm
In short: as §1

[11] = test system: AMASP (Amaranthus spinosus); conditions: Table 5.5; AMASP growth stage 72; A-1 25, B-6 252 g ai/ha; 28 DAT; water 400 l/ha
In short: as §1

CYNDA (Cynodon dactylon) = conditions: A-1 25, B-6 252 g ai/ha, 28 DAT, water 400 l/ha
In short: as §1

CP(=O)(O)CCC(N)C(=O)O (stereo not shown) [B-2, glufosinate-ammonium]
% herbicidal activity ([1]; A-1 12.5, B-2 500 g ai/ha): 15%
% herbicidal activity ([1]; A-1 18, B-2 500 g ai/ha): 15%
% herbicidal activity ([2]; A-1 25, B-2 400 g ai/ha): 30%
% herbicidal activity ([2]; A-1 50, B-2 400 g ai/ha): 30%
% herbicidal activity (ERISS (Erigeron sp.); A-1 25, B-2 400 g ai/ha): 40%
% herbicidal activity (ERISS (Erigeron sp.); A-1 50, B-2 400 g ai/ha): 40%
% herbicidal activity [3]: 28%
% herbicidal activity [4]: 73%
% herbicidal activity [5]: 20%
% herbicidal activity (EPHHI (Euphorbia hirta)): 20%
% herbicidal activity ([6]; Table 1.15, A-1 25, B-2 400 g ai/ha, 21 DAT, water 100 l/ha): 10%
% herbicidal activity ([6]; Table 1.2, B-2 solo 400 g ai/ha, 14 DAT, water volume 100 l/ha, 0.5% v/v MSO): 20%
% herbicidal activity ([7]; Table 1.13, DIGIN height 20-30 cm, A-1 50, B-2 400 g ai/ha, 21 DAT, water 100 l/ha): 20%
% herbicidal activity ([7]; Table 1.17, DIGIN height 20-30 cm, A-1 50, B-2 400 g ai/ha, 21 DAT, water 200 l/ha): 30%
% herbicidal activity ([7]; Table 1.19, DIGIN height 20-30 cm, A-1 50, B-2 400 g ai/ha, 21 DAT, water 200 l/ha): 30%
% herbicidal activity ([7]; Table 1.20, DIGIN height 60-80 cm, A-1 50, B-2 400 g ai/ha, 21 DAT, water 200 l/ha): 57%
% herbicidal activity ([7]; Table 1.22, DIGIN in tillering stage, height 5-15 cm, A-1 50, B-2 400 g ai/ha, 21 DAT, water 200 l/ha): 35%
% herbicidal activity ([7]; Table 1.22, DIGIN in tillering stage, height 5-15 cm, A-1 50, B-2 600 g ai/ha, 21 DAT, water 200 l/ha): 70%
% herbicidal activity ([7]; Table 1.23, DIGIN growth stage 16-18, height 15-25 cm, A-1 50, B-2 400 g ai/ha, 21 DAT, water 200 l/ha): 55%
% herbicidal activity ([7]; Table 1.23, DIGIN growth stage 16-18, height 15-25 cm, A-1 50, B-2 600 g ai/ha, 21 DAT, water 200 l/ha): 65%
% herbicidal activity ([7]; Table 1.24, DIGIN growth stage 67, height 100 cm, A-1 50, B-2 400 g ai/ha, 21 DAT, water 200 l/ha): 17%
% herbicidal activity ([7]; Table 1.24, DIGIN growth stage 67, height 100 cm, A-1 50, B-2 600 g ai/ha, 21 DAT, water 200 l/ha): 37%
% herbicidal activity ([7]; Table 1.25, DIGIN in tillering stage, height 8-20 cm, A-1 50, B-2 400 g ai/ha, 21 DAT, water 200 l/ha): 25%
% herbicidal activity ([7]; Table 1.25, DIGIN in tillering stage, height 8-20 cm, A-1 50, B-2 600 g ai/ha, 21 DAT, water 200 l/ha): 43%
% herbicidal activity ([7]; Table 1.26, DIGIN in tillering stage, height 50-70 cm, A-1 50, B-2 400 g ai/ha, 21 DAT, water 200 l/ha): 15%
% herbicidal activity ([7]; Table 1.26, DIGIN in tillering stage, height 50-70 cm, A-1 50, B-2 600 g ai/ha, 21 DAT, water 200 l/ha): 15%
% herbicidal activity ([7]; Table 1.3, DIGIN height 60-80 cm, A-1 25, B-2 400 g ai/ha, 14 DAT, water 200 l/ha): 68%
% herbicidal activity ([7]; Table 1.3, DIGIN height 60-80 cm, A-1 50, B-2 400 g ai/ha, 14 DAT, water 200 l/ha): 68%
% herbicidal activity ([7]; Table 1.5, DIGIN growth stage 16-18, height 15-25 cm, A-1 50, B-2 400 g ai/ha, 14 DAT, water 200 l/ha): 60%
% herbicidal activity ([7]; Table 1.5, DIGIN growth stage 16-18, height 15-25 cm, A-1 50, B-2 600 g ai/ha, 14 DAT, water 200 l/ha): 70%
% herbicidal activity ([7]; Table 1.7, DIGIN height 50-70 cm, tillering stage, B-2 solo 600 g ai/ha, 14 DAT, water volume 200 l/ha, 0.5% v/v MSO): 17%
% herbicidal activity (ELEIN (Eleusine indica); Table 1.10, ELEIN growth stage 23-25, height 3-5 cm, A-1 25, B-2 400 g ai/ha, 20 DAT, water 200 l/ha): 35%
% herbicidal activity (ELEIN (Eleusine indica); Table 1.1, ELEIN growth stage 24, B-2 solo 400 g ai/ha, 14 DAT, water volume 100 l/ha, 0.5% v/v MSO): 12%
% herbicidal activity (ELEIN (Eleusine indica); Table 1.14, ELEIN growth stage 24, A-1 25, B-2 400 g ai/ha, 21 DAT, water 100 l/ha): 0%
% herbicidal activity (ELEIN (Eleusine indica); Table 1.15, ELEIN height 25 cm, A-1 25, B-2 400 g ai/ha, 21 DAT, water 100 l/ha): 10%
% herbicidal activity (ELEIN (Eleusine indica); Table 1.15, ELEIN height 25 cm, A-1 50, B-2 400 g ai/ha, 21 DAT, water 100 l/ha): 10%
% herbicidal activity (ELEIN (Eleusine indica); Table 1.18, ELEIN growth stage 24, A-1 25, B-2 400 g ai/ha, 21 DAT, water 200 l/ha): 0%
% herbicidal activity (ELEIN (Eleusine indica); Table 1.18, ELEIN growth stage 24, A-1 50, B-2 400 g ai/ha, 21 DAT, water 200 l/ha): 0%
% herbicidal activity (ELEIN (Eleusine indica); Table 1.21, ELEIN growth stage 24, A-1 25, B-2 400 g ai/ha, 21 DAT, water 200 l/ha): 0%
% herbicidal activity (ELEIN (Eleusine indica); Table 1.21, ELEIN growth stage 24, A-1 50, B-2 400 g ai/ha, 21 DAT, water 200 l/ha): 0%
% herbicidal activity (ELEIN (Eleusine indica); Table 1.4, ELEIN growth stage 24, A-1 50, B-2 400 g ai/ha, 14 DAT, water 200 l/ha): 18%
% herbicidal activity (ELEIN (Eleusine indica); Table 1.9, ELEIN growth stage 23-25, height 3-5 cm, A-1 25, B-2 400 g ai/ha, 20 DAT, water 100 l/ha): 20%

CP(=O)(O)CC[C@H](N)C(=O)O.N [B-6, glufosinate-P-ammonium]
% herbicidal activity [8]: 32%
% herbicidal activity [9]: 48%
% Herbicidal activity [10]: 60%
% herbicidal activity [10]: 35%
% herbicidal activity [11]: 84%
% herbicidal activity (CYNDA (Cynodon dactylon); Table 5.4, CYNDA growth stage 76-77, height 15-16 cm): 88%
% herbicidal activity (CYNDA (Cynodon dactylon); Table 5.5, CYNDA growth stage 72): 86%
